# According to US20110281807A1, “PLANT DISEASE CONTROL AGENT COMPRISING D-TAGATOSE AS ACTIVE INGREDIENT, AND PLANT DISEASE CONTROL METHOD” (NATIONAL UNIVERSITY CORPORATION KAGAWA UNIVERSITY, priority 2008, published 2011):
# Counter-ions that a name gives are not always drawn. Like-named read-outs stand apart in the source and are kept apart here.
# How the values were obtained:
# Puccinia recondita = settings: for Preventive value: wheat, compound alone
# Procedure: Test plants (variety: Nourin 61 gou) were sowed and grown until two leaves stage.
# D-Tagatose and fungicide were diluted to 10000 ppm and the concentration listed in table 19, respectively, with distilled water, and 10 ml of the dilution was sprayed thoroughly on the plants. Three days after the spraying of the dilution, the plants were inoculated with Puccinia recondita containing 1×10^3/ml and then put for 16 hours in an inoculation chamber (20° C. to 23° C.) to promote disease. Seven days after inoculation the disease severity of the test plants was observed and the effectiveness of test sample was judged.
# Botrytis cinerea = settings: for pest or weed control at 10 ppm / pest or weed control at 250 ppm / pest or weed control at 50 ppm / pest or weed control at 2 ppm: Botrytis cinerea, in Solanum lycopersicum, 168 h, read-out: Preventive value; for Preventive value: tomato, compound alone
# Procedure: Test plants (tomato, variety: Ogata-fukujyu) were seeded and grown until the three leaf stage. D-Tagatose and fungicide were diluted to 10000 ppm and the concentrations liste in table 23, respectively, with distilled water and 10 ml of the dilution was sprayed on the plants. Three days after spraying the solution, condia suspension of Botrytis cinerea were inoculated by spraying on test plants and then put for 16 hours in an inoculation chamber (20° C. to 23° C.) to promote disease. Seven days after inoculation, the disease severity of the test plants was observed and the effectiveness of test sample was judged.
# Sphaerotheca fuliginea = settings: for Preventive value: cucumber, compound alone
# Procedure: Test plants (cucumber, variety: Sagami hanpaku) were seeded and grown until the one true leaf stage. D-Tagatose and fungicide were diluted to 5000 ppm and the concentrations listed in table 20, respectively, with distilled water and 10 ml of the dilution was sprayed thoroughly on the plants. Three days after spraying, a condia suspension containing of Sphaerotheca fuliginea were inoculated by spraying on test plants.
# Seven days after inoculation the disease severity of the test plants was observed and the effectiveness of test sample was judged.
# [1] = test system: Erysiphe graminis f.sp. hordei; settings: for Preventive value: barley, compound alone
# Procedure: Test plants (barley, variety: Akashinriki) were seeded and grown until the one leaf stage. D-tagatose and fungicide were diluted to 5000 ppm and the concentrations listed in table 21, respectively, with distilled water and 10 ml of the dilution was sprayed thoroughly on the plants. Three days after spraying, a condia suspension of Erysiphe graminis f.sp. hordei was inoculated by spraying on test plants. 7 days after inoculation the disease severity of the test plants was observed and the effectiveness of test sample was judged.
# [2] = test system: Pseudoperonospora cubensis; settings: for pest or weed control at 250 ppm / pest or weed control at 50 ppm / pest or weed control at 10 ppm / pest or weed control at 0.4 ppm / pest or weed control at 2 ppm: Pseudoperonospora cubensis, in Cucumis sativus, 168 h, read-out: Preventive value; for Preventive value: alone
# Procedure: Test plants (cucumber, variety: Sagami hanpaku) were seeded and grown until the one true leaf stage. D-Tagatose was diluted to 5000 ppm and the fungicides were diluted to the concentrations listed in table 14, with distilled water. And then 10 ml of the dilution was sprayed on the test plant. Three days after spraying of the solution, a sporangium suspension of Pseudoperonospora cubensis containing 1×10^3/ml were inoculated by spraying on test plants and then put for 16 hours in an inoculation chamber (20° C. to 23° C.) to promote disease. Seven days after inoculation the disease severity of the test plants was observed and the effectiveness of the test sample was judged. Tests were carried out using two plants for each test set and the disease severity of the test plants was judged in accordance with the following criteria. The preventive value was calculated from the degree of disease severity.
# 0 (No lesion) 1 (Lesion area was not more than 40%) 2 ((Lesion area was 40%-80%) 3 (Lesion area was not less than 80%)
# Preventive value=100{1−(n/N)} N=disease severity of untreated leaf, n=disease severity of the test leaf Synergistic effect was determined by Colby's equation.
# Pythium aphanidermatum = test: cucumber damping-off, pot test: soil drench of D-tagatose combined with fungicides; settings: for Preventive value: alone, soil drench
# Procedure: Five seeds of test plants (cucumber, variety: Sagami hanpaku) were sowed in a pot (5×5 cm), which contains infested soil with Pythium aphanidermatum (mycelium 100 g/1 L soil) and was covered with soil. D-Tagatose was diluted to 5000 ppm and the fungicides were diluted to the concentrations listed in table 18, with distilled water. The pot was drenched with 10 ml of the dilution. After 2 weeks, the disease severity of the test plants was observed and the effectiveness of test sample was judged. Tests were carried out in triplicate using 5 plants for each test set and the preventive value was calculated from the germination rate.
# Phytophthora infestans = test: whole plant or invertebrate; type: in vivo; settings: for pest or weed control at 250 ppm / pest or weed control at 50 ppm / pest or weed control at 10 ppm / pest or weed control at 0.4 ppm / pest or weed control at 2 ppm: Phytophthora infestans, in Solanum lycopersicum, 168 h, read-out: Preventive value; for Preventive value: alone
# Pyricularia oryze = test: whole plant or invertebrate; type: in vivo; settings: for pest or weed control at 250 ppm / pest or weed control at 50 ppm / pest or weed control at 10 ppm: Pyricularia, in Oryza sativa, 168 h, read-out: Preventive value; for Preventive value: rice, compound alone
# Plasmopara viticola = settings: for pest or weed control at 250 ppm / pest or weed control at 50 ppm / pest or weed control at 10 ppm / pest or weed control at 0.4 ppm / pest or weed control at 2 ppm: Plasmopara viticola, 168 h, read-out: Preventive value; for Preventive value: alone
# Procedure: Test plants (variety: Neo Muscat) were seeded and grown until three leaves. D-Tagatose was diluted to 5000 ppm and the fungicides were diluted to the concentrations listed in table 16, with distilled water, and 10 ml of the dilution was sprayed on the plants. Three days after the spraying of the dilution, the plants were infected by spraying a sporangium suspension of Plasmopara viticola containing 1×10^3/ml and then put for 16 hours in an inoculation chamber (20° C. to 23° C.) to promote disease. The disease severity of the test plants was observed 7 days after inoculation, and the effectiveness of test sample was judged.
# [3] = test system: Pseudoperonospora cubensis; settings: for pest or weed control at 250 ppm / pest or weed control at 50 ppm / pest or weed control at 10 ppm / pest or weed control at 0.4 ppm / pest or weed control at 2 ppm: Pseudoperonospora cubensis, in Cucumis sativus, 168 h, read-out: Preventive value; for Preventive value: alone, curative
# Procedure: Test plants (cucumber, variety: Sagami hanpaku) were seeded and grown until the one true leaf stage. And then, a sporangium suspension of Pseudoperonospora cubensis containing 1×10^3/ml were spraying for inoculation on the back side of the leaves of test plants and then put for 16 hours in an inoculation chamber (20° C. to 23° C.) to promote disease. For a curative test, the inoculated plants as described above were used.
# D-Tagatose was diluted to 5000 ppm and the fungicides were diluted to the concentrations listed in table 15, with distilled water, and 10 ml of the dilution was sprayed. Seven days after inoculation the disease severity of the test plants was observed and the effectiveness of test sample was judged.
# [4] = Puccinia recondita, in Triticum aestivum, 168 h, read-out: Preventive value
# [5] = Podosphaera fuliginea, in Cucumis sativus, 168 h, read-out: Preventive value
# [6] = Blumeria graminis, in Hordeum vulgare, 168 h, read-out: Preventive value
# [7] = Pythium aphanidermatum, in Cucumis sativus, soil, 336 h, read-out: Preventive value
compound,measurement,setting,value
O=C(Nc1ccccc1-c1ccc(Cl)cc1)c1cccnc1Cl [boscalid],pest or weed control at 2 ppm,Puccinia recondita; [4],67%
same,pest or weed control at 10 ppm,Botrytis cinerea,67%
same,pest or weed control at 0.4 ppm,Sphaerotheca fuliginea; [5],67%
same,pest or weed control at 0.4 ppm,[1]; [6],17%
Cc1cc(O)no1 [hymexazol],pest or weed control at 250 ppm,Puccinia recondita; [4],0%
same,pest or weed control at 250 ppm,[2],0%
same,pest or weed control at 50 ppm,Pythium aphanidermatum; [7],67%
same,pest or weed control at 250 ppm,Phytophthora infestans,0%
same,pest or weed control at 250 ppm,Botrytis cinerea,0%
same,pest or weed control at 250 ppm,Sphaerotheca fuliginea; [5],0%
same,pest or weed control at 250 ppm,Pyricularia oryze,33%
same,pest or weed control at 250 ppm,[1]; [6],0%
same,pest or weed control at 250 ppm,Plasmopara viticola,0%
same,pest or weed control at 250 ppm,[3],0%
CCCOC/C(=N\c1ccc(Cl)cc1C(F)(F)F)n1ccnc1 [triflumizole],pest or weed control at 2 ppm,Puccinia recondita; [4],40%
same,pest or weed control at 50 ppm,Botrytis cinerea,67%
same,pest or weed control at 0.4 ppm,Sphaerotheca fuliginea; [5],97%
same,pest or weed control at 0.4 ppm,[1]; [6],50%
CC(C)CC(C)c1sccc1NC(=O)c1cn(C)nc1C(F)(F)F (stereo not drawn) [penthiopyrad],pest or weed control at 0.4 ppm,Puccinia recondita; [4],67%
same,pest or weed control at 50 ppm,[2],0%
same,pest or weed control at 250 ppm,Pythium aphanidermatum; [7],0%
same,pest or weed control at 50 ppm,Phytophthora infestans,0%
same,pest or weed control at 10 ppm,Botrytis cinerea,67%
same,pest or weed control at 0.4 ppm,Sphaerotheca fuliginea; [5],50%
same,pest or weed control at 50 ppm,Pyricularia oryze,40%
same,pest or weed control at 0.4 ppm,[1]; [6],67%
same,pest or weed control at 50 ppm,Plasmopara viticola,0%
same,pest or weed control at 50 ppm,[3],0%
COC(=O)NC(=S)Nc1ccccc1NC(=S)NC(=O)OC [thiophanate-methyl],pest or weed control at 10 ppm,Puccinia recondita; [4],40%
same,pest or weed control at 250 ppm,[2],0%
same,pest or weed control at 250 ppm,Pythium aphanidermatum; [7],0%
same,pest or weed control at 250 ppm,Phytophthora infestans,0%
same,pest or weed control at 50 ppm,Botrytis cinerea,83%
same,pest or weed control at 10 ppm,Sphaerotheca fuliginea; [5],83%
same,pest or weed control at 250 ppm,Pyricularia oryze,83%
same,pest or weed control at 10 ppm,[1]; [6],83%
same,pest or weed control at 250 ppm,Plasmopara viticola,0%
same,pest or weed control at 250 ppm,[3],0%
N#Cc1c[nH]cc1-c1cccc2c1OC(F)(F)O2 [fludioxonil],pest or weed control at 50 ppm,Puccinia recondita; [4],17%
same,pest or weed control at 10 ppm,[2],57%
same,pest or weed control at 250 ppm,Pythium aphanidermatum; [7],0%
same,pest or weed control at 10 ppm,Phytophthora infestans,0%
same,pest or weed control at 2 ppm,Botrytis cinerea,67%
same,pest or weed control at 250 ppm,Sphaerotheca fuliginea; [5],73%
same,pest or weed control at 50 ppm,Pyricularia oryze,83%
same,pest or weed control at 250 ppm,[1]; [6],73%
same,pest or weed control at 10 ppm,Plasmopara viticola,33%
same,pest or weed control at 10 ppm,[3],0%
Fc1ccc(Oc2ccnc3cc(Cl)cc(Cl)c23)cc1 [quinoxyfen],pest or weed control at 250 ppm,Puccinia recondita; [4],0%
same,pest or weed control at 250 ppm,Botrytis cinerea,0%
same,pest or weed control at 2 ppm,Sphaerotheca fuliginea; [5],83%
same,pest or weed control at 2 ppm,[1]; [6],93%
CC(C)OC(=O)N[C@H](C(=O)N[C@H](C)c1nc2ccc(F)cc2s1)C(C)C [benthiavalicarb-isopropyl],pest or weed control at 250 ppm,Puccinia recondita; [4],0%
same,pest or weed control at 0.4 ppm,[2],73%
same,pest or weed control at 250 ppm,Pythium aphanidermatum; [7],0%
same,pest or weed control at 0.4 ppm,Phytophthora infestans,73%
same,pest or weed control at 250 ppm,Botrytis cinerea,0%
same,pest or weed control at 250 ppm,Sphaerotheca fuliginea; [5],0%
same,pest or weed control at 250 ppm,[1]; [6],0%
same,pest or weed control at 0.4 ppm,Plasmopara viticola,50%
same,pest or weed control at 0.4 ppm,[3],33%
C#CCOc1ccc(CCNC(=O)C(OCC#C)c2ccc(Cl)cc2)cc1OC (stereo not drawn) [mandipropamid],Preventive value,[2]; 0.4 ppm,67
same,Preventive value,Phytophthora infestans; 0.4 ppm,73
same,Preventive value,Plasmopara viticola; 0.4 ppm,73
same,Preventive value,[3]; 0.4 ppm,40
[Cu+2].[OH-].[OH-] [cupric hydroxide],Preventive value,[2]; 50 ppm,40
same,Preventive value,Phytophthora infestans; 50 ppm,50
same,Preventive value,Plasmopara viticola; 50 ppm,0
same,Preventive value,[3]; 50 ppm,0
CCNC(=O)NC(=O)/C(C#N)=N/OC [cymoxanil],pest or weed control at 50 ppm,[2],33%
same,pest or weed control at 250 ppm,Pythium aphanidermatum; [7],17%
same,pest or weed control at 50 ppm,Phytophthora infestans,83%
same,pest or weed control at 50 ppm,Plasmopara viticola,73%
same,pest or weed control at 50 ppm,[3],83%
CCCCCCCCCCCCc1ccc(S(=O)(=O)O)cc1.CCCCCCCCCCCCc1ccc(S(=O)(=O)O)cc1.CCCCCCCCCCCCc1ccc(S(=O)(=O)O)cc1.NC(N)=NCCCCCCCCNCCCCCCCCN=C(N)N [iminoctadine albesilate],Preventive value,Puccinia recondita; 250 ppm,40
same,Preventive value,[2]; 250 ppm,40
same,Preventive value,Phytophthora infestans; 250 ppm,0
same,Preventive value,Botrytis cinerea; 10 ppm,67
same,Preventive value,Sphaerotheca fuliginea; 50 ppm,83
same,Preventive value,Pyricularia oryze; 250 ppm,50
same,Preventive value,[1]; 50 ppm,17
same,Preventive value,Plasmopara viticola; 250 ppm,0
same,Preventive value,[3]; 250 ppm,0
Cc1c(Br)c2ccc(F)cc2n1S(=O)(=O)c1ncn(S(=O)(=O)N(C)C)n1 [amisulbrom],Preventive value,Pythium aphanidermatum; 50 ppm,83
O=[N+]([O-])c1cc(C(F)(F)F)c(Cl)c([N+](=O)[O-])c1Nc1ncc(C(F)(F)F)cc1Cl [fluazinam],pest or weed control at 50 ppm,Puccinia recondita; [4],83%
same,pest or weed control at 10 ppm,[2],97%
same,pest or weed control at 10 ppm,Phytophthora infestans,83%
same,pest or weed control at 50 ppm,Botrytis cinerea,67%
same,pest or weed control at 250 ppm,Sphaerotheca fuliginea; [5],83%
same,pest or weed control at 10 ppm,Pyricularia oryze,50%
same,pest or weed control at 250 ppm,[1]; [6],83%
same,pest or weed control at 10 ppm,Plasmopara viticola,83%
same,pest or weed control at 10 ppm,[3],0%
CSC1=N[C@@](C)(c2ccccc2)C(=O)N1Nc1ccccc1 [fenamidone],pest or weed control at 2 ppm,[2],33%
same,pest or weed control at 10 ppm,Pythium aphanidermatum; [7],50%
same,pest or weed control at 2 ppm,Phytophthora infestans,83%
same,pest or weed control at 2 ppm,Plasmopara viticola,83%
same,pest or weed control at 2 ppm,[3],33%
O=C(NCc1ncc(C(F)(F)F)cc1Cl)c1c(Cl)cccc1Cl [fluopicolide],Preventive value,[2]; 10 ppm,83
same,Preventive value,Pythium aphanidermatum; 250 ppm,83
same,Preventive value,Phytophthora infestans; 10 ppm,83
same,Preventive value,Pyricularia oryze; 250 ppm,0
same,Preventive value,Plasmopara viticola; 10 ppm,73
same,Preventive value,[3]; 10 ppm,83
Cc1ccc(-c2c(Cl)nc(C#N)n2S(=O)(=O)N(C)C)cc1 [cyazofamid],pest or weed control at 250 ppm,Puccinia recondita; [4],0%
same,pest or weed control at 0.4 ppm,[2],73%
same,pest or weed control at 50 ppm,Pythium aphanidermatum; [7],83%
same,pest or weed control at 0.4 ppm,Phytophthora infestans,17%
same,pest or weed control at 250 ppm,Botrytis cinerea,0%
same,pest or weed control at 250 ppm,Sphaerotheca fuliginea; [5],0%
same,pest or weed control at 250 ppm,Pyricularia oryze,0%
same,pest or weed control at 250 ppm,[1]; [6],0%
same,pest or weed control at 0.4 ppm,Plasmopara viticola,50%
same,pest or weed control at 0.4 ppm,[3],0%
CC(C)NC(=O)N1CC(=O)N(c2cc(Cl)cc(Cl)c2)C1=O [iprodione],pest or weed control at 250 ppm,Puccinia recondita; [4],33%
same,pest or weed control at 2 ppm,Botrytis cinerea,40%
same,pest or weed control at 250 ppm,Sphaerotheca fuliginea; [5],33%
same,pest or weed control at 250 ppm,Pyricularia oryze,0%
same,pest or weed control at 250 ppm,[1]; [6],17%
CCO[PH](=O)O [fosethyl],Preventive value,Puccinia recondita; 250 ppm,0
same,Preventive value,[2]; 250 ppm,0
same,Preventive value,Pythium aphanidermatum; 250 ppm,0
same,Preventive value,Phytophthora infestans; 250 ppm,33
same,Preventive value,Sphaerotheca fuliginea; 250 ppm,17
same,Preventive value,[1]; 250 ppm,17
same,Preventive value,Plasmopara viticola; 250 ppm,0
same,Preventive value,[3]; 250 ppm,0
COc1ccc(C(=CC(=O)N2CCOCC2)c2ccc(Cl)cc2)cc1OC [dimethomorph],pest or weed control at 10 ppm,[2],67%
same,pest or weed control at 250 ppm,Pythium aphanidermatum; [7],0%
same,pest or weed control at 10 ppm,Phytophthora infestans,73%
same,pest or weed control at 10 ppm,Plasmopara viticola,50%
same,pest or weed control at 10 ppm,[3],40%
N#Cc1c(Cl)c(Cl)c(Cl)c(C#N)c1Cl [chlorothalonil],pest or weed control at 50 ppm,Puccinia recondita; [4],83%
same,pest or weed control at 50 ppm,[2],83%
same,pest or weed control at 50 ppm,Phytophthora infestans,83%
same,pest or weed control at 50 ppm,Botrytis cinerea,67%
same,pest or weed control at 50 ppm,Sphaerotheca fuliginea; [5],50%
same,pest or weed control at 50 ppm,[1]; [6],33%
same,pest or weed control at 50 ppm,Plasmopara viticola,73%
same,pest or weed control at 50 ppm,[3],0%
CCCOC(=O)NCCCN(C)C [propamocarb hydrochloride],pest or weed control at 250 ppm,[2],67%
same,pest or weed control at 250 ppm,Pythium aphanidermatum; [7],0%
same,pest or weed control at 250 ppm,Phytophthora infestans,67%
same,pest or weed control at 250 ppm,Plasmopara viticola,33%
same,pest or weed control at 250 ppm,[3],40%
O=C1OCc2c(Cl)c(Cl)c(Cl)c(Cl)c21 [fthalide],pest or weed control at 10 ppm,Pyricularia oryze,50%
CCC(C)(NC(=O)c1cc(Cl)c(C)c(Cl)c1)C(=O)CCl (stereo not drawn) [zoxamide],pest or weed control at 2 ppm,[2],67%
same,pest or weed control at 250 ppm,Pythium aphanidermatum; [7],0%
same,pest or weed control at 2 ppm,Phytophthora infestans,50%
same,pest or weed control at 250 ppm,Pyricularia oryze,0%
same,pest or weed control at 2 ppm,Plasmopara viticola,83%
same,pest or weed control at 2 ppm,[3],33%
C[C@H]1O[C@H](O[C@H]2[C@H](O)[C@@H](O)[C@@H](O)[C@H](O)[C@@H]2O)[C@@H](N)C[C@@H]1NC(=N)C(=O)O [kasugamycin],Preventive value,Pyricularia oryze; 10 ppm,73
O=C(Cc1ccccc1)N/C(=N\OCC1CC1)c1c(C(F)(F)F)ccc(F)c1F [cyflufenamid],pest or weed control at 0.4 ppm,Sphaerotheca fuliginea; [5],50%
same,pest or weed control at 0.4 ppm,[1]; [6],67%
OCC1=C[C@H](N[C@H]2C[C@H](CO)[C@@H](O[C@@H]3O[C@H](CO)[C@@H](O)[C@H](O)[C@H]3O)[C@H](O)[C@H]2O)[C@H](O)[C@@H](O)[C@@H]1O [validamycin],pest or weed control at 10 ppm,Pyricularia oryze,50%
Cc1cccc2sc3nncn3c12 [tricyclazole],pest or weed control at 10 ppm,Pyricularia oryze,50%
manzeb,Preventive value,Puccinia recondita; 50 ppm,83
same,Preventive value,[2]; 10 ppm,90
same,Preventive value,Phytophthora infestans; 10 ppm,67
same,Preventive value,Botrytis cinerea; 50 ppm,40
same,Preventive value,Sphaerotheca fuliginea; 50 ppm,50
same,Preventive value,[1]; 50 ppm,40
same,Preventive value,Plasmopara viticola; 10 ppm,33
same,Preventive value,[3]; 10 ppm,0
